Target: T1, MhFPPS (MhIDS-2), full-length (Murgantia histrionica, UniProt A0A343W970)
T1 sequence (A0A343W970 1-405): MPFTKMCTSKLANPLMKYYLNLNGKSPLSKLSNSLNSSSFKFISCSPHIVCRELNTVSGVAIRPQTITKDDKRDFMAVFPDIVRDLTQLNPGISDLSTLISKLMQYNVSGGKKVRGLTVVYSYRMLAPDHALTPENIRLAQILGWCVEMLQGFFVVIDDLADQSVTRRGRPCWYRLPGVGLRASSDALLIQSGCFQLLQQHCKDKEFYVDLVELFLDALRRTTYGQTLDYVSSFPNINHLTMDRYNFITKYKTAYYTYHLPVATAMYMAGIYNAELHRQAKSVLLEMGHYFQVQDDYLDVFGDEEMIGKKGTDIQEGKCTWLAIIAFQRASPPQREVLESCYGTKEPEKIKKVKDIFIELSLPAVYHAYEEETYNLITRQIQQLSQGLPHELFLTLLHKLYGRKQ
Assay: LC-MS/MS product assay
Assay type: biochemical

SMILES	LC-MS/MS product assay (co-substrate DMAPP)	LC-MS/MS product assay (co-substrate IPP)
C=C(C)CCOP(=O)(O)OP(=O)(O)O [IPP]	MhIDS-2 produced (E,E)-FPP from IPP and DMAPP	–
CC(C)=CCOP(=O)(O)OP(=O)(O)O [DMAPP]	–	MhIDS-2 produced (E,E)-FPP from IPP and DMAPP

Reference: paper PMC6140472 (Proceedings of the National Academy of Sciences of the …, 2018)
